Drawing on BindingDB's records for patent US20190276450 (Abbvie, 2019), this text covers EC50 for 19 compounds.

The target of assay [1] is Tyrosine-protein kinase JAK1 (Homo sapiens, UniProt P23458). The experiment in a line: JAK1 (PSTAT3 TF1) Alpha Screen Assay. The protocol:
IL-6 is known to transduce its signal through IL-6 receptor via Jak1. Activity against Jak was therefore measured by determining inhibition of IL-6 induced phosphorylation of STAT3 in TF1 cells. From these tests, the EC50 (effective concentration for 50% maximal response) values were determined in 1 μM for the test compounds.

The target in assay [2] is Non-receptor tyrosine-protein kinase TYK2 (Homo sapiens, UniProt P29597). Description: TYK2 (TYK2/JAK2 PSTAT4 T-BLAST) Alpha Screen Assay. The protocol:
IL-12 is known to transduce its signal through IL-12 receptor via Jak2 and/or Tyk2. For that reason, the activity against Tyk2/Jak2 was measured by determining the inhibition of IL-12 induced phosphorylation of STAT4 in T-blast cells. […] See, e.g., Sohn et al., J. Immunology (2013) 2205-2216.

Assay [3] has as its target Tyrosine-protein kinase JAK2 (Homo sapiens, UniProt O60674). Description: JAK2 (PSTAT5 UT7) Alpha Screen Assay. The protocol: Erythropoietin (EPO) is known to transduce its signal through EPO receptor via Jak2. Activity against Jak2 was therefore measured by determining inhibition of EPO induced phosphorylation of […] in UT7 cells. From these tests, the EC50 (effective concentration for 50% maximal response) values were determined in 1 μM for the test compounds.

Each structure is given as a SMILES string.

Tyrosine-protein kinase JAK1, sequence (P23458 whole entry): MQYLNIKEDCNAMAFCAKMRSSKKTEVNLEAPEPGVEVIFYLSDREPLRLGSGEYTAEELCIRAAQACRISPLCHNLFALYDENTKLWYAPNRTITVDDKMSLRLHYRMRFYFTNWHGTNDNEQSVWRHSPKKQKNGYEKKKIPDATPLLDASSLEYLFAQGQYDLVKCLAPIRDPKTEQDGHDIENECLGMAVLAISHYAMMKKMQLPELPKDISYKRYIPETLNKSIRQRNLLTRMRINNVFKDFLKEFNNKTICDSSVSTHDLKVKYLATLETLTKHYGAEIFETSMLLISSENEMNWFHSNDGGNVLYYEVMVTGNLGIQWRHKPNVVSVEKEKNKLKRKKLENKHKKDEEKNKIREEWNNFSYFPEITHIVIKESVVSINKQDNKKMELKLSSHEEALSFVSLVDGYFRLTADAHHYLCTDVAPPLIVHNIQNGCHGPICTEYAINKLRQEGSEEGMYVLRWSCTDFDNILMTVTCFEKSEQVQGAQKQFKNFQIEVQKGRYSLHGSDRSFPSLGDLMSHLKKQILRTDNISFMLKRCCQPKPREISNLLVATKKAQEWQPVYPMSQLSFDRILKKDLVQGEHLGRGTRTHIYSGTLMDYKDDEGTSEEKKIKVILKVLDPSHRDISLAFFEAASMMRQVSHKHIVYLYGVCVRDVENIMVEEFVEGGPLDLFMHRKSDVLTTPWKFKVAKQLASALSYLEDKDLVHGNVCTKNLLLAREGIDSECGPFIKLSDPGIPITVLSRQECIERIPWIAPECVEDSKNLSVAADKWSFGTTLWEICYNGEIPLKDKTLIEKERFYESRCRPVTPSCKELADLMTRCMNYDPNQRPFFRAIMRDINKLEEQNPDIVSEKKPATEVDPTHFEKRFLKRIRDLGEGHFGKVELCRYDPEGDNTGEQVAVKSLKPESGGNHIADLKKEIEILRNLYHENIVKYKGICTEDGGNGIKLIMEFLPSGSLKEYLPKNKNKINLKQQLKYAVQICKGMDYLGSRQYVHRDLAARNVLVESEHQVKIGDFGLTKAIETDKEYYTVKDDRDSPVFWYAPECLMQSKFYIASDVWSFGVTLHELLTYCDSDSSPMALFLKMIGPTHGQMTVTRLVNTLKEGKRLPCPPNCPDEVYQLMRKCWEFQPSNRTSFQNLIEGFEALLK
Non-receptor tyrosine-protein kinase TYK2, sequence (P29597 whole entry): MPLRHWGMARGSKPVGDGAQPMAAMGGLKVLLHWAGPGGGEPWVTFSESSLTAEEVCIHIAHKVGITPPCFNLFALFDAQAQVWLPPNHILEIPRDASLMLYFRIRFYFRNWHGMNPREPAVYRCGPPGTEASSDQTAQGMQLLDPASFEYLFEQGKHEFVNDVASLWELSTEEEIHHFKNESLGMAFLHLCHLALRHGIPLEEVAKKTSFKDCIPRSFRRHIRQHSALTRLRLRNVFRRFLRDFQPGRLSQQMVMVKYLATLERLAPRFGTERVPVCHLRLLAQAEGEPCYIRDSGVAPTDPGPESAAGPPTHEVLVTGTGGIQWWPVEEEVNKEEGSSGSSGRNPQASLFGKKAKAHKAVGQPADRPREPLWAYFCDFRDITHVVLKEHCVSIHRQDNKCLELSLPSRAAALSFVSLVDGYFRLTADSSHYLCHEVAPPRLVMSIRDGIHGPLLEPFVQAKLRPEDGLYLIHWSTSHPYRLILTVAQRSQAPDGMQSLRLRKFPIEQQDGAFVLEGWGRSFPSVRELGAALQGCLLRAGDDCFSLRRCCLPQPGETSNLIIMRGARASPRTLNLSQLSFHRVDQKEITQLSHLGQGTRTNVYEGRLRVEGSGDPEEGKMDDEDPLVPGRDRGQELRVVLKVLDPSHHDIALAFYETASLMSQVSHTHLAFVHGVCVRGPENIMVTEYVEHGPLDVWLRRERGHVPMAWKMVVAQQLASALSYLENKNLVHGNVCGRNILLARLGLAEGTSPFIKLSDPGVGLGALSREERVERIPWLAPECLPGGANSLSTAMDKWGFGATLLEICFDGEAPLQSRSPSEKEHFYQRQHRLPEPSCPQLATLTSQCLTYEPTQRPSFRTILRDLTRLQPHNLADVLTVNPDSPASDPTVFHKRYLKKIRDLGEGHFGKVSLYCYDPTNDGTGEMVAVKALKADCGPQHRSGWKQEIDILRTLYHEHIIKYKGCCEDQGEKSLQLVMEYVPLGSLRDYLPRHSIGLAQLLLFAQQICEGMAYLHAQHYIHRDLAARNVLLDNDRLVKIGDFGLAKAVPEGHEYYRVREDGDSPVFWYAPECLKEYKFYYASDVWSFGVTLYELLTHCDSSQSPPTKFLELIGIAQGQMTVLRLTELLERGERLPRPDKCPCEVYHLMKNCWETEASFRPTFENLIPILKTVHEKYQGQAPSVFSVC
Tyrosine-protein kinase JAK2, sequence (O60674 whole entry): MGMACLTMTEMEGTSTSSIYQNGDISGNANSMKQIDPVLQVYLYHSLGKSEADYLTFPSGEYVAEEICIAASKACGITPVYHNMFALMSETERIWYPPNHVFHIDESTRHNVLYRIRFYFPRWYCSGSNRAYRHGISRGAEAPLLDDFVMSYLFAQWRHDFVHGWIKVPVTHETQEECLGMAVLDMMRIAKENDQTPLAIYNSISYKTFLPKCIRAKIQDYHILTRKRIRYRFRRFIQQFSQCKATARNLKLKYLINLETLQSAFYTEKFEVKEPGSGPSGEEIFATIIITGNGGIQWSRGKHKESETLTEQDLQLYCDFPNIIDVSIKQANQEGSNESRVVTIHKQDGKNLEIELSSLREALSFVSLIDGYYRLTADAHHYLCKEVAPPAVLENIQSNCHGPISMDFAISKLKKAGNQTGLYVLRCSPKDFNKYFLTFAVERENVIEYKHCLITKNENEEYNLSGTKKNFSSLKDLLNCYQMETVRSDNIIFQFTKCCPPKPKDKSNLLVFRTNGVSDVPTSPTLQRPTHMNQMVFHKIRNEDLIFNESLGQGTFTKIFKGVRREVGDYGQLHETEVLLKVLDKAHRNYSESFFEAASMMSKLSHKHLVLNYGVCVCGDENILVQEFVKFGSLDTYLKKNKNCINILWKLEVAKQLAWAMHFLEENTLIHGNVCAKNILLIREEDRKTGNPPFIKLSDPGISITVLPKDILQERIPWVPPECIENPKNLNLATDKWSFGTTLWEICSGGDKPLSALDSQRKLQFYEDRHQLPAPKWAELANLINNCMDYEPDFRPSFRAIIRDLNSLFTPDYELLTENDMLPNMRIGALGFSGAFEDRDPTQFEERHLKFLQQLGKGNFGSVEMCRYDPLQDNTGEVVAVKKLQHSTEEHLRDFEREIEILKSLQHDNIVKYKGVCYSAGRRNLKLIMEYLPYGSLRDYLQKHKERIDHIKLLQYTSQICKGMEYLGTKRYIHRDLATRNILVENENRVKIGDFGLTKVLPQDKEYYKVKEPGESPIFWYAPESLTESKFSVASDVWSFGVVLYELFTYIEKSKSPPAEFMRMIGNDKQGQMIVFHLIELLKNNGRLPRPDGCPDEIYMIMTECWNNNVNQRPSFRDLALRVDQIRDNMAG

The EC50 is the midpoint of the concentration-response curve. Consider `CC[C@@]1(c2cccc(-c3cn(C)c4cnc(NC(C)=O)cc34)n2)CCOC1` [US20190276450, Example 2.3], for which the figures for the EC50 in assay [1] and in assay [2] were 18000 nM and 96 nM, respectively.

On to `COc1cc(-c2cn(C)c3cnc(NC(C)=O)cc23)nc([C@]2(CO)CCOC2)c1` [US20190276450, Example 22.6], for which the EC50 was 11100 nM in assay [1], above 25000 nM in assay [3] and 130 nM in assay [2].

Turning to `CO[C@@]1(c2cc(C(F)F)cc(-c3cn([C@@H]4CCOC4)c4cnc(NC(N)=O)cc34)n2)CCOC1` [US20190276450, Example 12b.2], the EC50 in assay [1] amounted to 40000 nM; in assay [2] it was 15 nM.

Take `Cn1cc(-c2cccc(C3(O)COC3)n2)c2cc(NC(N)=O)ncc21` [US20190276450, Example 14]: the concentration for a half-maximal effect (EC50) turned out to be 11100 nM in assay [1] and 563 nM in assay [2].

`COc1cc(-c2cn(C3COC3)c3cnc(NC(C)=O)cc23)nc([C@]2(OC)CCOC2)c1` [US20190276450, Example 5]: the half-maximal effective concentration (EC50) in assay [1] is above 100000 nM; in assay [2] it was 111 nM.

As for `CO[C@@]1(c2cc(OC3COC3)cc(-c3cn(C)c4cnc(NC(C)=O)cc34)n2)CCOC1` [US20190276450, Example 8], the results for the EC50 in assay [1] and in assay [2] were 22000 nM and 90 nM, respectively.

For the compound `CO[C@@]1(c2cc(C(F)F)cc(-c3cn(C4COC4)c4cnc(NC(N)=O)cc34)n2)CCOC1` [US20190276450, Example 12b.4], the concentration giving a half-maximal response (EC50) was 40000 nM in assay [1] and 45 nM in assay [2].

For `CO[C@@]1(c2cc(C(F)F)cc(-c3cn([C@H]4CCOC4)c4cnc(NC(N)=O)cc34)n2)CCOC1` [US20190276450, Example 12b.3], the concentration for a half-maximal effect (EC50) in assay [1] stood at 68000 nM; in assay [2], 56 nM.

`CO[C@@]1(c2cc(C#N)cc(-c3cn([C@@H]4CC4(F)F)c4cnc(NC(N)=O)cc34)n2)CCOC1` [US20190276450, Example 12a.3]: the 50% effective concentration (EC50) is above 100000 nM in assay [1] and 66 nM in assay [2].

In the case of `NC(=O)Nc1cc2c(-c3cccc(C4(O)COC4)n3)cn([C@@H]3CCOC3)c2cn1` [US20190276450, Example 15], the EC50 in assay [1] amounted to 73000 nM; in assay [2], 908 nM.

`CO[C@]1(c2cc(OCC3COC3)cc(-c3cn(C)c4cnc(NC(C)=O)cc34)n2)CCOC1` [US20190276450, Example 6.2]: the results for the EC50 in assay [1] and in assay [2] were 5200 nM and 103 nM, respectively.

In the case of `CO[C@@]1(c2cc(C)cc(-c3cn([C@H]4C[C@H](C#N)C4)c4cnc(NC(C)=O)cc34)n2)CCOC1` [US20190276450, Example 17.4], the EC50 worked out at 20000 nM in assay [1] and 127 nM in assay [2].

Regarding `COc1cc(-c2cn(C)c3cnc(NC(N)=O)cc23)nc([C@@]2(OC)CCOC2)c1` [US20190276450, Example 12.7], the results for the EC50 in assay [1] and in assay [2] were 15000 nM and 185 nM, respectively.

With `CO[C@]1(c2cc(C)cc(-c3cn(C)c4cnc(NC(N)=O)cc34)n2)CCOC1` [US20190276450, Example 1b.3], the 50% effective concentration (EC50) in assay [1] stood at 4460 nM; in assay [2], 445 nM.

Consider `COc1cc(-c2cn([C@@H]3CCOC3)c3cnc(NC(C)=O)cc23)nc([C@]2(OC)CCOC2)c1` [US20190276450, Example 5.2], for which the EC50 was above 100000 nM in assay [1] and 156 nM in assay [2].

With `CO[C@@]1(c2cc(C(F)F)cc(-c3cn(C)c4cnc(NC(N)=O)cc34)n2)CCOC1` [US20190276450, Example 12.5], the values for the half-maximal effective concentration (EC50) in assay [1] and in assay [2] were 20000 nM and 22 nM, respectively.

On to `COCc1cc(-c2cn(C)c3cnc(NC(C)=O)cc23)nc([C@@]2(CO)CCOC2)c1` [US20190276450, Example 22a], for which the concentration for a half-maximal effect (EC50) in assay [3] is above 25000 nM; in assay [2], 1200 nM.

Regarding `CO[C@@]1(c2cc(C)cc(-c3cn([C@H]4C[C@@H](C#N)C4)c4cnc(NC(C)=O)cc34)n2)CCOC1` [US20190276450, Example 17.5], the EC50 in assay [1] is 32000 nM; in assay [2], 5 nM.

As for `COc1cc(-c2cn(C)c3cnc(NC(C)=O)cc23)nc([C@]2(OC)CCOC2)c1` [US20190276450, Example 20], the values for the EC50 in assay [1] and in assay [2] were 45000 nM and 137 nM, respectively.
